The target of one assay is F508del‐CFTR (Homo sapiens, UniProt P13569, DEL508-508). As to the kind of experiment: Fluorescence-based halide flux assay (I−-induced quenching of YFP fluorescence) in FRT cells. It counts as cell-based. The note with it: exploratory data. As to the method:
Fischer rat thyroid (FRT) epithelial cells (RRID:CVCL_A6IE) expressing CFTR variants were used for functional studies with halide flux and Ussing chamber techniques. FRT cells stably expressing the F508del variant with the V470 polymorphism and the halide sensor yellow fluorescent protein (YFP)‐H148Q/I152L (F508del‐CFTR‐YFP‐FRT cells) (Galietta et al., [2001]) were obtained from LJV Galietta (Telethon Institute for Genetics and Medicine, Pozzuoli, Italy). They were cultured in Coon's modified Ham's F‐12 medium supplemented with 10% FBS, 2‐mM GlutaMAX™, 0.27% NaHCO3, 100 U·ml^−1 penicillin and 100 μg·ml^−1 streptomycin and 0.8 mg·ml^−1 zeocin at 37°C in a humidified atmosphere with 5% CO2. […]
CFTR‐mediated anion transport was quantified by measuring I^−‐induced quenching of YFP fluorescence using a microtitre plate reader following the method of Galietta et al. ([2001]). […] Using a fluorescence microtitre plate reader (FLIPR384; Molecular Devices, San Jose, CA, USA) equipped with 500‐nm excitation and 535‐nm emission filters, an initial fluorescence reading was recorded before addition of PBS‐iodide solution (composition [mM]: 137 NaI, 2.7 KCl, 8.1 Na2HPO4, 1.5 KH2PO4, 1 CaCl2, and 0.5 MgCl2, pH 7.40) into each well and 21 s later a second fluorescence reading was acquired. […]

The target of assay [1] is T1, native CFTR, genotype F508del/F508del (Homo sapiens, UniProt P13569, DEL508-508).
T1 construct: For functional studies of native CFTR, we used primary cultures of human bronchial epithelial cells; host or cells: primary human bronchial epithelial cells, F508del/F508del, air-liquid interface cultures
Briefly: Ussing chamber CFTR-mediated short-circuit current (Isc) in F508del/F508del human bronchial epithelial cells. It counts as cell-based. To be noted: for EC50: F508del/F508del epithelia of hBE cells, basal F508del‐CFTR expression, Isc, 27°C, read-out: EC50 (μM) (95% CI); for Emax: HBE, read-out: Maximal effect (%) (95% CI). The text has this:
For functional studies of native CFTR, we used primary cultures of human bronchial epithelial cells of genotypes F508del/F508del and F508del/G551D. Passage 1 (P1) human bronchial epithelial cells from SH Randell (University of North Carolina [UNC] Cystic Fibrosis Center Tissue Procurement and Cell Culture Core) were differentiated at an air–liquid interface as described by Neuberger et al., ([2011]) with some modifications. The research conducted on human cells at UNC has been verified as compliant with Pfizer policies, including institutional review board or institutional ethics committee approval. Cells were thawed and expanded in BEGM™ Bronchial Epithelial Cell Growth Medium (cat. no. CC‐3170, Lonza, USA) supplemented with retinoic acid (10 nM) and banked at P2. For functional assays, P2 cells were expanded to P4, and 5 × 10^5 P4 human bronchial epithelial cells were seeded in growth medium on Snapwell filter inserts (cat. no. 3801, Corning, NY, USA). Cells were switched to differentiation medium the following day and cultured submerged for 3 days before the medium was removed from the apical membrane to establish an air–liquid interface. Thereafter, the basolateral medium was changed every 2–3 days and mucus washed from the apical membrane every 2–3 weeks and the day prior to use starting 21 days after initiating air–liquid interface culture.
After >30 days of air–liquid interface culture on Snapwell filter inserts, human bronchial epithelial cells formed well differentiated, electrically tight epithelia (Rt > 200 Ω cm^2). Prior to study, F508del/F508del and F508del/G551D human bronchial epithelial cell cultures were incubated at 37°C and 5% CO2.
Epithelia were mounted in Ussing chambers and data acquired and analysed as described above for Ussing chamber studies of FRT cells heterologously expressing CFTR with the following exceptions. Both the apical and basolateral membranes were bathed in solutions containing (mM): 137 NaCl, 4 KCl, 1.8 CaCl2, 1 MgCl2, 10 Na HEPES, and 10 glucose (pH 7.4 with NaOH). Epithelia of F508del/G551D human bronchial epithelial cells were studied at 35°C, whereas those of F508del/F508del human bronchial epithelial cells were assayed at 27°C to maintain the apical membrane expression of F508del‐CFTR. After cancelling voltage offsets, transepithelial voltage was clamped at 0 mV and short‐circuit current (Isc) recorded continuously. The protocol to record CFTR‐mediated Isc was the same as for ICl ^apical measurements except that amiloride (30 μM, apical solution) was added to inhibit the epithelial Na^+ channel before forskolin (10 μM, apical and basolateral solutions) addition.

The EC50 is the concentration that produces a half-maximal response.

T1 sequence (P13569 with tags, fused parts or gaps DEL508-508): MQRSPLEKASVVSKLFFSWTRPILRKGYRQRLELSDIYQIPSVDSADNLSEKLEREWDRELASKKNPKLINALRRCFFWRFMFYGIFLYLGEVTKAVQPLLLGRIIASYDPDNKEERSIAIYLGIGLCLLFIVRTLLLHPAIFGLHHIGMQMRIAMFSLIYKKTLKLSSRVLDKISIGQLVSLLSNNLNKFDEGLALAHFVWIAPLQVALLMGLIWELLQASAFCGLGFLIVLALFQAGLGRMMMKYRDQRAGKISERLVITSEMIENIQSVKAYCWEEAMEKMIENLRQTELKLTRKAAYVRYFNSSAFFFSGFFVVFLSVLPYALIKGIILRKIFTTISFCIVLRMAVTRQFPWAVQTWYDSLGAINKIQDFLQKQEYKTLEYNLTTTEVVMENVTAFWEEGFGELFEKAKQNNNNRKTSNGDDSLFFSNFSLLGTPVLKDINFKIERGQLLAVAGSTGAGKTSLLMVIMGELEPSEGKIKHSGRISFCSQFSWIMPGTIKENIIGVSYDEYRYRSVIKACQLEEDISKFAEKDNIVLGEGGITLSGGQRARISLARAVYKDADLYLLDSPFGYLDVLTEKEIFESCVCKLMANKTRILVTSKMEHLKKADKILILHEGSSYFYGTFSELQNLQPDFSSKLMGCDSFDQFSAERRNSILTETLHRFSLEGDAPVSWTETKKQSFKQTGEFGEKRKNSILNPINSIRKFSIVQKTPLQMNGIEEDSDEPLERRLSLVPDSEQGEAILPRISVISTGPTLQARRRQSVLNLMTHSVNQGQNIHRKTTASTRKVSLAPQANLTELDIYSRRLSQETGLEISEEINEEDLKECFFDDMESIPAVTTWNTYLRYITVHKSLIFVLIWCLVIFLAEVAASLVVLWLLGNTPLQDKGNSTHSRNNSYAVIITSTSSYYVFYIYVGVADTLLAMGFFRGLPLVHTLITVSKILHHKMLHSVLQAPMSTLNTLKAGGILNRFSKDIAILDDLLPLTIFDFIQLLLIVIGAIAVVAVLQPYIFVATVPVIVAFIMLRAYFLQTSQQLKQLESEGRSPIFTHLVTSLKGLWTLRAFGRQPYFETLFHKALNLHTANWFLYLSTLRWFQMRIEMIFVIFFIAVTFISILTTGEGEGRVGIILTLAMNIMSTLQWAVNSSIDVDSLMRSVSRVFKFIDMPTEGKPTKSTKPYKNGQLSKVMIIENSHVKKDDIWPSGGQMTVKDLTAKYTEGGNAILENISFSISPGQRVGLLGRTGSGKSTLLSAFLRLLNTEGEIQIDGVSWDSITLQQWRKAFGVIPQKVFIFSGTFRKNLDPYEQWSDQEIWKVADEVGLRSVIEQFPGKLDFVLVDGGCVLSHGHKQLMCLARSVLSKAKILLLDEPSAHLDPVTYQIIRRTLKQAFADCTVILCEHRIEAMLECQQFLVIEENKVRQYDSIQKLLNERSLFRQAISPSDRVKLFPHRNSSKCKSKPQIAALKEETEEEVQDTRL
Sequence of F508del‐CFTR (P13569 with tags, fused parts or gaps DEL508-508): as above

For the molecule `Cc1ncccc1CNC(=O)c1ccc2c(c1)CC[C@H]1C[C@](O)(CCC(F)(F)F)CC[C@]21Cc1ccccc1` (racemic) [CP‐628006, rac‐(4bR,7R,8aS)‐4b‐benzyl‐7‐hydroxy‐N‐((2‐methylpyridin‐3‐yl)methyl)‐7‐(3,3,3‐trifluoropropyl)‐4b,5,6,7,8,8a,9,10‐octahydrophenanthrene‐2‐carboxamide], the “maximal response compared with ivacaftor” value at F508del‐CFTR (FRT cells co-expressing low temperature-rescued F508del‐CFTR and YFP) is given as “approximately half that of ivacaftor”. Also, the EC50 on F508del‐CFTR (FRT cells co-expressing low temperature-rescued F508del‐V470‐CFTR and YFP, forskolin 20 μM, scaled to DMSO 0% and genistein 50 μM 100%, read-out: EC50 for potentiation of CFTR-mediated anion transport) is 400 nM. In addition, in assay [1], the concentration for a half-maximal effect (EC50) was 0.062 µM and the Emax was 56%.
As for `CC(C)(C)c1cc(C(C)(C)C)c(NC(=O)c2c[nH]c3ccccc3c2=O)cc1O` [ivacaftor, reference compound], in assay [1], the EC50 came out at 0.002 µM and the Emax was 102%.

The values are drawn from PMC9304199, “A small molecule CFTR potentiator restores ATP‐dependent channel gating to the cystic fibrosis mutant G551D‐CFTR” (British Journal of Pharmacology, 2022).
